This test deals with Human recombinant Histone Deacetylase 8 (HDAC8) (Homo sapiens (Human), UniProt Q9BY41). The experiment in a line: HDAC8 Enzymatic Assay (HDAC-Glo I/II luminescence). It is filed as biochemical. As to the method: HDAC-Glo™ I/II Assay Kit was purchased from Promega Corporation (Madison, Wis.), including the following components: HDAC-Glo I/II Buffer (25 mM Tris buffer, pH 8.0, supplemented with 137 mM: NaCl, 2.7 mM KCl, 1% v/v Triton X-100 and 1 mM: MgCl2), luminogenic substrates Boc-GAK(Ac)-aminoluciferin (HDAC-Glo I/II substrate), proprietary developer reagent (containing trypsin). Human recombinant Histone Deacetylase 8 (HDAC8) was purchased from Enzo Life Sciences (Plymouth Meeting, Pa.).
Human recombinant Histone Deacetylase 8 (HDAC8), sequence (Q9BY41 whole entry): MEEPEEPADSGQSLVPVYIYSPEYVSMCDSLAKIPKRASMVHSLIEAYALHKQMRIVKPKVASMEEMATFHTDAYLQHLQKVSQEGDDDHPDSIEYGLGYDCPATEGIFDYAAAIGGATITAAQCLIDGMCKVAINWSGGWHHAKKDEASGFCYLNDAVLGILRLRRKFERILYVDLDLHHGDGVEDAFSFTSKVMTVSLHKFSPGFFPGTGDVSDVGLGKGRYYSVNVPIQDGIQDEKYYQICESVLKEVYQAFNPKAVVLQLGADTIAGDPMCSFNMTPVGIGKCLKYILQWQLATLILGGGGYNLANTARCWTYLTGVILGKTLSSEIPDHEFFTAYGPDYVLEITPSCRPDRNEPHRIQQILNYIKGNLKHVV
The HDAC8 reaction was performed at room temperature in white 384-well polystyrene, flat-bottom microtiter plate (Greiner Bio-one, Monroe, N.C.) in a final volume of 20 μL. Test compounds were first diluted serially in DMSO and 100 nL were transferred to the plate wells by Echo 550 (Labcyte, Sunnyvale, Calif.) before the addition of other reaction components. The final concentration of DMSO in the assay was 0.5%. The HDAC-Glo I/II assay reagent was prepared by rehydration of lyophilized HDAC-Glo I/II substrate in 10 mL. HDAC-Glo I/II assay buffer followed with the addition of 10 μL of developer reagent. 10 uL of 3 nM HDAC8 in the HDAC-Glo I/II assay buffer were first dispensed into the microliter plate containing the compounds and incubated at room temperature for 30 min. The reactions were initiated with the addition of 10 uL HDAC-Glo I/II assay reagent with Multidrop (Thermo, Waltham, Mass.). The final concentration of HDAC8 and HDAC-Glo I/II substrate in the reaction were 1.5 nM and 50 μM, respectively. The assay plate was mixed for 1 min by orbital shaking (500 rpm) and centrifuged for 1 min at 1500 rpm. After 15 min at room temperature, luminescence signals were measured on TopCount (Perkin Elmer). Wells with no compound served as the positive controls and wells containing no HDAC8 were used as negative controls. IC50 determination was performed by fitting the curve of percentage control activity versus the log of the compound concentration using the GraphPad Prism 6.0 software.

The mark [1] stands for this setting: class symbols, Table 14, read-out: HDAC8 IC50.

Usually IC50 stands for the midpoint of a concentration-inhibition curve.

Structures are written as SMILES. Read-outs that look alike come from different tables or passages of the source.

For `O=C(NO)C(Cc1ccccc1)n1ncc2ccc(Br)cc21` (stereo not shown) [Compound I-0021, 2-(6-bromo-1H-indazol-1-yl)-N-hydroxy-3-phenylpropanamide], the 50% inhibitory concentration (IC50) under setting [1] is over 500 nM.

`Cc1ccc2c(cnn2C(Cc2ccccc2)C(=O)NO)c1` (stereo not shown) [Compound I-0016, N-hydroxy-2-(5-methyl-1H-indazol-1-yl)-3-phenylpropanamide]: the IC50 under setting [1] lay within 50 to 200 nM.

`O=C(NO)C(Cc1ccccc1)n1cc2cccc(C(=O)N3CCC4(CCOCC4)CC3)c2n1` (stereo not shown) [Compound I-0175, 2-(7-(3-oxa-9-azaspiro[5.5]undecane-9-carbonyl)-2H-indazol-2-yl)-N-hydroxy-3-phenylpropanamide]: the 50% inhibitory concentration (IC50) under setting [1] is over 500 nM.

In the case of `Cn1nccc1-c1cccc2c(C#CC3CC3)n(C(Cc3ccccc3)C(=O)NO)nc12` (stereo not shown) [Compound I-0137, 2-(3-(cyclopropylethynyl)-7-(1-methyl-1H-pyrazol-5-yl)-2H-indazol-2-yl)-N-hydroxy-3-phenylpropanamide], the half-maximal inhibitory concentration (IC50) under setting [1] is at most 50 nM.

Regarding `CN1CCN(c2ccc(-c3cccc4nn(C(Cc5ccccc5)C(=O)NO)cc34)cn2)CC1` (stereo not shown) [Compound I-0149, N-hydroxy-2-(4-(6-(4-methylpiperazin-1-yl)pyridin-3-yl)-2H-indazol-2-yl)-3-phenylpropanamide], the IC50 under setting [1] lay within 50 to 200 nM.

For `Cn1cc(-c2ccc3nn(C(Cc4ccccc4)C(=O)NO)c(C#CC4CC4)c3c2)cn1` (stereo not shown) [Compound I-0044, 2-(3-(cyclopropylethynyl)-5-(1-methyl-1H-pyrazol-4-yl)-2H-indazol-2-yl)-N-hydroxy-3-phenylpropanamide], the concentration for half-maximal inhibition (IC50) under setting [1] lay within 50 to 200 nM.

In the case of `CN1CCN(Cc2cccc3cn(C(Cc4ccccc4)C(=O)NO)nc23)CC1=O` (stereo not shown) [Compound I-0192, N-hydroxy-2-(7-((4-methyl-3-oxopiperazin-1-yl)methyl)-2H-indazol-2-yl)-3-phenylpropanamide], the 50% inhibitory concentration (IC50) under setting [1] is 50 to 200 nM.

Regarding `O=C(NO)C(Cc1ccccc1)n1cc2cncc(I)c2n1` (stereo not shown) [Compound I-0054, N-hydroxy-2-(7-iodo-2H-pyrazolo[4,3-c]pyridin-2-yl)-3-phenylpropanamide], the IC50 under setting [1] was over 500 nM.

Turning to `O=C(NO)C(Cc1ccccc1)n1cnc2ccccc21` (stereo not shown) [Compound I-0041, 2-(1H-benzo[d]imidazol-1-yl)-N-hydroxy-3-phenylpropanamide], under setting [1], the IC50 lay in the range of 200 to 500 nM.

With `CN(C)C(=O)c1ccc(-c2nccc3c(C#CC4CC4)n(C(Cc4ccccc4)C(=O)NO)nc23)cc1` (stereo not shown) [Compound I-0142, 4-(3-(cyclopropylethynyl)-2-(1-(hydroxyamino)-1-oxo-3-phenylpropan-2-yl)-2H-pyrazolo[3,4-c]pyridin-7-yl)-N,N-dimethylbenzamide], the IC50 under setting [1] is at most 50 nM.

Take `Cc1cc2cn(C(Cc3ccccc3)C(=O)NO)nc2cc1Br` (stereo not shown) [Compound I-0039, 2-(6-bromo-5-methyl-2H-indazol-2-yl)-N-hydroxy-3-phenylpropanamide]: the IC50 under setting [1] was over 500 nM.

As to `O=C(NCCN1CCOCC1)c1cccc2cn(C(Cc3ccccc3)C(=O)NO)nc12` (stereo not shown) [Compound I-0179, 2-(1-(hydroxyamino)-1-oxo-3-phenylpropan-2-yl)-N-(2-morpholinoethyl)-2H-indazole-7-carboxamide], under setting [1], the IC50 fell in the range of 50 to 200 nM.

As for `N#Cc1cccc(-c2cnc3c(cnn3C(Cc3ccccc3)C(=O)NO)c2)c1` (stereo not shown) [Compound I-0130, 2-(5-(3-cyanophenyl)-1H-pyrazolo[3,4-b]pyridin-1-yl)-N-hydroxy-3-phenylpropanamide], under setting [1], the IC50 was over 500 nM.

For `Cn1nccc1-c1ccc2nn(C(Cc3ccccc3)C(=O)NO)c(C#CC3CC3)c2c1` (stereo not shown) [Compound I-0028, 2-(3-(cyclopropylethynyl)-5-(1-methyl-1H-pyrazol-5-yl)-2H-indazol-2-yl)-N-hydroxy-3-phenylpropanamide], under setting [1], the half-inhibitory concentration (IC50) was at most 50 nM.

With `O=C(NO)C(Cc1ccccc1)n1nc2ccc(Cl)cc2c1C#CC1CC1` (stereo not shown) [Compound I-0005, 2-[5-Chloro-3-(cyclopropylethynyl)-2H-indazol-2-yl]-N-hydroxy-3-phenylpropanamide], the IC50 was 22 nM (HDAC8, read-out: IC50) and at most 50 nM under setting [1].

Values taken from patent US10723705B2, “Heterocyclic compounds and uses thereof” (Incyte Corporation, priority 2015, dated 2020).
